# PMC9519446, “Discovery of an Orally Active Benzoxaborole Prodrug Effective in the Treatment of Chagas Disease in Non-human Primates” (Nature microbiology, 2022)
# “And” between values parts separate entries of the source, which are not always exact repeats. Identical values can stand only once.
# Test: NHP health screening: hematology (CBC)
# Assay type: in vivo, rhesus macaques (Macaca mulatta)
# Conditions: treated macaques, individual animals
# Method: Under light-anesthesia/sedation, peripheral blood samples were collected from each animal prior to treatment and at 7 time points following. Blood analysis (CBC and serum chemistry assays) and physical exams to evaluate the health of the study animals were performed on each animal prior to the beginning of the study and also at three time points during the treatment protocol (see Supplementary data).
structure (smiles),measurement,setting,value
Cc1c(C(=O)N[C@H](C(=O)OCC2CCOCC2)C(C)C)ccc2c1B(O)OC2 [AN15368],Eos,mid-dosing bleed,0.07 10^3/µL and 0.09 10^3/µL and 0.04 10^3/µL and 0.06 10^3/µL and 0.16 10^3/µL and 0.08 10^3/µL and 0.05 10^3/µL and 0.18 10^3/µL and 0.19 10^3/µL and 0.2 10^3/µL and 0.02 10^3/µL and 0.26 10^3/µL
same,Hct,mid-dosing bleed,41.2% and 42.7% and 40.7% and 46.1% and 39.7% and 43.4% and 40% and 40.3% and 41.5% and 41.9% and 42% and 39.6% and 43.3% and 43.7% and 42.6% and 38.2% and 38.9% and 39.9%
same,Hgb,mid-dosing bleed,13.1 G/Dl and 14.2 G/Dl and 12.7 G/Dl and 14.6 G/Dl and 12.8 G/Dl and 13.9 G/Dl and 13.4 G/Dl and 13.5 G/Dl and 12.5 G/Dl and 12.6 G/Dl and 14 G/Dl and 13.6 G/Dl and 11.9 G/Dl and 12.9 G/Dl
same,Lymp,mid-dosing bleed,3.35 10^3/µL and 4.79 10^3/µL and 3.28 10^3/µL and 5.22 10^3/µL and 2.3 10^3/µL and 2.17 10^3/µL and 3.7 10^3/µL and 4.02 10^3/µL and 5.12 10^3/µL and 2.39 10^3/µL and 2.58 10^3/µL and 3.15 10^3/µL and 3.84 10^3/µL and 2.63 10^3/µL and 2.99 10^3/µL and 4.63 10^3/µL and 1.5 10^3/µL and 2.51 10^3/µL and 3.89 10^3/µL
same,Mch,mid-dosing bleed,23.8 Pgs and 22.9 Pgs and 24.1 Pgs and 24.7 Pgs and 24 Pgs and 22.6 Pgs and 24.4 Pgs and 23.9 Pgs and 22.5 Pgs and 23.1 Pgs and 23.3 Pgs and 23.7 Pgs and 22.8 Pgs and 23 Pgs and 22.7 Pgs and 23.6 Pgs
same,Mchc,mid-dosing bleed,31.8 G/Dl and 33.3 G/Dl and 31.2 G/Dl and 31.7 G/Dl and 32.2 G/Dl and 32 G/Dl and 32.8 G/Dl and 32.5 G/Dl and 30.8 G/Dl and 32.1 G/Dl and 31.6 G/Dl and 31.9 G/Dl and 33.2 G/Dl and 32.3 G/Dl
same,Mcv,mid-dosing bleed,74.9 fL and 68.9 fL and 77.2 fL and 78 fL and 74.5 fL and 70.8 fL and 74.6 fL and 73.8 fL and 72.9 fL and 76.6 fL and 72.2 fL and 76.4 fL and 74.7 fL and 74.4 fL and 71.4 fL and 72.1 fL and 71.2 fL
same,Mono,mid-dosing bleed,0.25 10^3/µL and 0.22 10^3/µL and 0.19 10^3/µL and 0.43 10^3/µL and 0.26 10^3/µL and 0.21 10^3/µL and 0.16 10^3/µL and 0.58 10^3/µL and 0.3 10^3/µL and 0.38 10^3/µL and 0.13 10^3/µL and 0.32 10^3/µL and 0.28 10^3/µL and 0.08 10^3/µL and 0.17 10^3/µL and 0.5 10^3/µL
same,Mpv,mid-dosing bleed,6.5 fL and 7.2 fL and 7.4 fL and 9.2 fL and 9.1 fL and 6.8 fL and 6.6 fL and 6.7 fL and 7.7 fL and 8.1 fL and 7.9 fL and 7.1 fL and 7.5 fL and 8.8 fL and 8.5 fL
same,Neut,mid-dosing bleed,1.09 10^3/µL and 1.04 10^3/µL and 2.08 10^3/µL and 1.9 10^3/µL and 3.38 10^3/µL and 1.51 10^3/µL and 1.78 10^3/µL and 2.28 10^3/µL and 1.12 10^3/µL and 2.03 10^3/µL and 1.69 10^3/µL and 3.43 10^3/µL and 3.82 10^3/µL and 1.6 10^3/µL and 3.07 10^3/µL and 1.17 10^3/µL and 1.61 10^3/µL and 1.53 10^3/µL and 0.96 10^3/µL
same,Plt,mid-dosing bleed,354 10^3/µL and 311 10^3/µL and 210 10^3/µL and 266 10^3/µL and 220 10^3/µL and 317 10^3/µL and 438 10^3/µL and 380 10^3/µL and 279 10^3/µL and 251 10^3/µL and 373 10^3/µL and 367 10^3/µL and 434 10^3/µL and 280 10^3/µL and 260 10^3/µL and 432 10^3/µL and 291 10^3/µL and 288 10^3/µL and 306 10^3/µL
same,Rbc,mid-dosing bleed,5.5 10^6/µL and 6.2 10^6/µL and 5.27 10^6/µL and 5.91 10^6/µL and 5.33 10^6/µL and 6.13 10^6/µL and 5.36 10^6/µL and 5.46 10^6/µL and 5.69 10^6/µL and 5.47 10^6/µL and 5.82 10^6/µL and 5.18 10^6/µL and 5.8 10^6/µL and 5.32 10^6/µL and 6.12 10^6/µL and 5.24 10^6/µL
same,Rdw,mid-dosing bleed,12.8% and 11.9% and 12.5% and 12.1% and 12.7% and 12% and 13.5% and 12.9% and 12.4% and 11.3% and 12.3%
same,Wbc,mid-dosing bleed,4.78 10^3/µL and 6.15 10^3/µL and 5.63 10^3/µL and 7.65 10^3/µL and 6 10^3/µL and 3.99 10^3/µL and 5.7 10^3/µL and 7.05 10^3/µL and 6.59 10^3/µL and 4.73 10^3/µL and 4.52 10^3/µL and 7.07 10^3/µL and 8.23 10^3/µL and 4.45 10^3/µL and 6.3 10^3/µL and 3.22 10^3/µL and 4.27 10^3/µL and 5.62 10^3/µL
same,Baso,post-dosing bleed,0.01 10^3/µL and 0.02 10^3/µL and 0 10^3/µL and 0.04 10^3/µL and 0.03 10^3/µL
same,Eos,post-dosing bleed,0.05 10^3/µL and 0.15 10^3/µL and 0.06 10^3/µL and 0.02 10^3/µL and 0.09 10^3/µL and 0.04 10^3/µL and 0.13 10^3/µL and 0.03 10^3/µL and 0.23 10^3/µL and 0.2 10^3/µL and 0.18 10^3/µL
same,Hct,post-dosing bleed,38.2% and 41.9% and 37.7% and 43% and 39.5% and 42.7% and 41% and 42.1% and 39.9% and 41.8% and 40.8% and 39.1% and 40.4% and 43.7% and 37.1% and 39.6% and 41.1%
same,Hgb,post-dosing bleed,12.2 G/Dl and 14.1 G/Dl and 12 G/Dl and 13.9 G/Dl and 12.7 G/Dl and 13.1 G/Dl and 13.5 G/Dl and 12.6 G/Dl and 13.4 G/Dl and 12.1 G/Dl and 14 G/Dl and 13 G/Dl and 11.7 G/Dl and 12.9 G/Dl
same,Lymp,post-dosing bleed,2.22 10^3/µL and 5.87 10^3/µL and 2.42 10^3/µL and 3.66 10^3/µL and 1.59 10^3/µL and 1.61 10^3/µL and 1.2 10^3/µL and 2.96 10^3/µL and 2.61 10^3/µL and 1.64 10^3/µL and 1.73 10^3/µL and 2.56 10^3/µL and 2.26 10^3/µL and 3.27 10^3/µL and 1.82 10^3/µL and 3.4 10^3/µL and 2.49 10^3/µL and 4.82 10^3/µL
same,Mch,post-dosing bleed,24 Pgs and 23.3 Pgs and 24.2 Pgs and 24.8 Pgs and 24.1 Pgs and 22.8 Pgs and 23.6 Pgs and 22.7 Pgs and 25.1 Pgs and 23.5 Pgs and 24.3 Pgs and 23 Pgs and 23.2 Pgs and 23.4 Pgs
same,Mchc,post-dosing bleed,31.9 G/Dl and 33.7 G/Dl and 31.8 G/Dl and 32.3 G/Dl and 32.2 G/Dl and 32.6 G/Dl and 32 G/Dl and 32.1 G/Dl and 31.6 G/Dl and 33.3 G/Dl and 32.8 G/Dl and 30.9 G/Dl and 32.4 G/Dl and 31.5 G/Dl and 31.4 G/Dl
same,Mcv,post-dosing bleed,74.9 fL and 69.4 fL and 76 fL and 76.5 fL and 75.1 fL and 70 fL and 75.4 fL and 73.3 fL and 71.9 fL and 75.6 fL and 71 fL and 76.1 fL and 75 fL and 71.5 fL and 72 fL and 73.8 fL and 71.1 fL
same,Mono,post-dosing bleed,0.18 10^3/µL and 0.32 10^3/µL and 0.21 10^3/µL and 0.33 10^3/µL and 0.22 10^3/µL and 0.38 10^3/µL and 0.54 10^3/µL and 0.11 10^3/µL and 0.26 10^3/µL and 0.1 10^3/µL and 0.28 10^3/µL and 0.15 10^3/µL and 0.34 10^3/µL
same,Mpv,post-dosing bleed,6.6 fL and 7.5 fL and 7.4 fL and 10.2 fL and 8.7 fL and 6.9 fL and 7.1 fL and 7 fL and 6.7 fL and 8.3 fL and 8 fL and 6.4 fL and 8.4 fL and 7.2 fL and 6.8 fL
same,Neut,post-dosing bleed,3.01 10^3/µL and 0.97 10^3/µL and 0.98 10^3/µL and 1.76 10^3/µL and 2.92 10^3/µL and 2.28 10^3/µL and 2.06 10^3/µL and 3.85 10^3/µL and 1.41 10^3/µL and 3.58 10^3/µL and 1.8 10^3/µL and 3.13 10^3/µL and 5.36 10^3/µL and 1.54 10^3/µL and 2.18 10^3/µL and 3.21 10^3/µL and 2.83 10^3/µL and 2.26 10^3/µL and 1.29 10^3/µL
same,Plt,post-dosing bleed,418 10^3/µL and 319 10^3/µL and 265 10^3/µL and 238 10^3/µL and 242 10^3/µL and 283 10^3/µL and 400 10^3/µL and 311 10^3/µL and 246 10^3/µL and 364 10^3/µL and 390 10^3/µL and 478 10^3/µL and 296 10^3/µL and 291 10^3/µL and 431 10^3/µL and 302 10^3/µL and 342 10^3/µL and 357 10^3/µL
same,Rbc,post-dosing bleed,5.1 10^6/µL and 6.04 10^6/µL and 4.96 10^6/µL and 5.62 10^6/µL and 5.26 10^6/µL and 6.1 10^6/µL and 5.44 10^6/µL and 5.74 10^6/µL and 5.55 10^6/µL and 5.53 10^6/µL and 5.75 10^6/µL and 5.14 10^6/µL and 5.39 10^6/µL and 6.11 10^6/µL and 5.61 10^6/µL and 5.03 10^6/µL and 5.57 10^6/µL and 5.49 10^6/µL
same,Rdw,post-dosing bleed,12.7% and 12.2% and 13% and 12% and 13.5% and 11.7% and 12.6% and 12.5% and 13.3% and 11.9% and 12.9% and 12.4% and 12.3% and 11% and 12.8%
same,Wbc,post-dosing bleed,5.48 10^3/µL and 7.33 10^3/µL and 3.67 10^3/µL and 5.82 10^3/µL and 4.76 10^3/µL and 4.2 10^3/µL and 3.7 10^3/µL and 7.52 10^3/µL and 4.16 10^3/µL and 5.51 10^3/µL and 3.69 10^3/µL and 6.15 10^3/µL and 8.14 10^3/µL and 5.08 10^3/µL and 4.41 10^3/µL and 7.03 10^3/µL and 5.73 10^3/µL and 4.11 10^3/µL and 6.68 10^3/µL
